Data set [1] concerns B cells. The experiment in a line: viability assay (Orangu, formazan-based), B cells. More on the design: species or system human. Particulars: 48 h, n = 3, read-out: B cell viability IC50. The protocol: (§1) 2 × 10^5 CD4^+ T cells, 1 × 10^5 B cells, 1 × 10^5 monocytes, 1 × 10^5 M1 MdMs, or 1 × 10^5 M2 MdMs were treated with A366, MS31, or vehicle for 48 h. The viability was determined with the Orangu^TM assay as described by the manufacturer.

Data set [2] deals with M2 MdMs. Nature of the data set: viability assay (Orangu, formazan-based), M2 MdM. The format is cell-based, human. Particulars: 48 h, n = 3. As for the experimental part:
as §1

Data set [3] has as its system CD4+ T cells. The experiment in a line: CD4+ T cell activation with anti-CD3/anti-CD28 (proliferation, surface markers, cytokines, viability). The format is cell-based.
Method: CTV staining was performed according to the protocol of supplier.
For analysis of the surface markers, 1.5–2*10^5 cells of each sample were blocked with human FcR Blocking Reagent (15 min, 4 °C). Afterwards, samples were stained with up to 7 µl of a mixture of different surface marker antibodies (15 min, 4 °C) and 250 µl of 10 % FCS/PBS were added. After centrifugation (300 g, 5 min, 4 °C) samples were resuspended in 100 µl PBS and measured with MACSQuant® Analyzer 10 flow cytometer. […] For CD4^+ T cells, anti-CD69, anti-CD45RO, anti-CD134, anti-CD154, anti-CD3, anti-CD25 were employed. […] Zombie Aqua™ Fixable Viability Kit (1:500 dilution, BioLegend, San Diego, CA, USA) (for CD4^+ T cells, macrophages) or Annexin/PE staining (BD Biosciences, Heidelberg, Germany) (for B cells) was used to discriminate living and dead cells according to the manufacturers protocol. For T cell and B cell proliferation assays, freshly isolated T and B cells were stained with CTV and the decrease in CTV as a result of cell proliferation was detected by flow cytometry. CTV positive cells were gated in high proliferating cells (low CTV level), medium proliferating cells (medium CTV level), and nonproliferating cells (high CTV level). […] For M1 MdMs, the cell population was gated using FSC/SSC channel, for M2 MdMs, the CD163^med population was gated since IL4 downregulates CD163 [18] and for CD4^+ T cells, CD3^+CD25^+ cells were gated. Geometric mean of the fluorescent intensity was calculated using FlowJo software V10 (Treestar, Ashland, TN, USA). Fold induction of surface marker expression was calculated using the DMSO-treated cells as control.
In data set [4] the test system is primary human immune cells. Nature of the data set: viability of primary human immune cells, formazan-based Orangu assay (ranges over cell types). Conditions: 48 h. As for the experimental part: as §1
The subject of data set [5] is Spindlin-1-H3K4me3-interaction. More on the design: method as in PMID 31260300, PMID 34492335. Particulars: cited from earlier work.
For data set [6], the system named is M2 MdMs. The experiment in a line: energy metabolism (Seahorse OCR/ECAR), M2 MdMs. Particulars: polarized 24 h in presence of compound. It counts as cell-based, human. The protocol: (§2) The energy metabolism was determined as described previously. Briefly, for the analysis of the extracellular acidification rate (ECAR) and the oxygen consumption rate (OCR) for human M1 MdMs, M2 MdMs, and activated B-/ CD4^+ T cells, the Seahorse XFe96 FluxPak (Agilent, Waldbronn, Germany) was used as recommended by the supplier. MdMs were polarized to M1 or M2 MdMs, B- and CD4^+ T cells were activated in the presence of A366, MS31, or vehicle (DMSO) for 48 h (M1 MdMs), 24 h (M2 MdMs) or 5 days (T/B cells). Cells were washed with Seahorse XF RPMI medium pH 7.4 (Agilent, Waldbronn, Germany), and OCR and ECAR were measured for a period of 120 min using the Seahorse XFe96 Analyzer (Agilent, Waldbronn, Germany) and analyzed by Wave Software (Agilent, Waldbronn, Germany). For T/B cells, the values after 50 min of stimulation of samples were related to the unstimulated control sample. For macrophages, the values at 50 min in treated samples were related to the vehicle control.

Data set [7] has as its system M1 MdMs. The experiment in a line: energy metabolism (Seahorse OCR/ECAR), M1 MdMs. The format is cell-based, human. Conditions: polarized 48 h in presence of compound. As for the experimental part: as §2
The subject of another data set is M1 macrophages. The experiment in a line: polarization of MdMs to M1 macrophages (surface markers, cytokines, viability). It counts as cell-based, human. The protocol: (§3) The generation of monocyte-derived macrophages (MdMs) was performed as previously described. Briefly, 0.5 × 10^6 CD14^+ cells/well were differentiated to macrophages in the presence of 10 ng/ml M-CSF (for M2 macrophages) or 10 ng/ml GM-CSF (for M1 macrophages) for 7 days. The macrophages were polarized in the presence of different concentrations of A366, MS31, or vehicle (DMSO) in 48-well plates. After pre-incubation with test substances or DMSO for 30 min, stimulants for differentiation were added: 20 ng/ml IFNγ for M1 macrophages and 10 ng/ml IL4 for M2 macrophages and incubated for 48h and 24h, respectively.
(§4) For analysis of the surface markers, 1.5–2*10^5 cells of each sample were blocked with human FcR Blocking Reagent (15 min, 4 °C). Afterwards, samples were stained with up to 7 µl of a mixture of different surface marker antibodies (15 min, 4 °C) and 250 µl of 10 % FCS/PBS were added. After centrifugation (300 g, 5 min, 4 °C) samples were resuspended in 100 µl PBS and measured with MACSQuant® Analyzer 10 flow cytometer. For M1-/M2-MdMs, anti-CD86, anti-CD14, anti-HLA-DR, anti-CD206, anti-CD80, anti-TREM2, and anti-CD163 were used. For CD4^+ T cells, anti-CD69, anti-CD45RO, anti-CD134, anti-CD154, anti-CD3, anti-CD25 were employed. For B cells, anti-CD27, anti-CD19, and anti-CD38 were applied. Zombie Aqua™ Fixable Viability Kit (1:500 dilution, BioLegend, San Diego, CA, USA) (for CD4^+ T cells, macrophages) or Annexin/PE staining (BD Biosciences, Heidelberg, Germany) (for B cells) was used to discriminate living and dead cells according to the manufacturers protocol. For T cell and B cell proliferation assays, freshly isolated T and B cells were stained with CTV and the decrease in CTV as a result of cell proliferation was detected by flow cytometry. CTV positive cells were gated in high proliferating cells (low CTV level), medium proliferating cells (medium CTV level), and nonproliferating cells (high CTV level). Plasmablasts were characterized as CD27^+CD38^+ cells, naïve B as CD19^+CD27^lowCD38^med, and memory B cells as CD19^+CD27^med CD38^low (Supplementary Fig. 1). For M1 MdMs, the cell population was gated using FSC/SSC channel, for M2 MdMs, the CD163^med population was gated since IL4 downregulates CD163 [18] and for CD4^+ T cells, CD3^+CD25^+ cells were gated. Geometric mean of the fluorescent intensity was calculated using FlowJo software V10 (Treestar, Ashland, TN, USA). Fold induction of surface marker expression was calculated using the DMSO-treated cells as control.
(§5) For determination of cytokine concentrations (IL10, IL17, IL8, IL6, IFNγ, CCL2) in the supernatant of humane immune cells, cytometric bead array (BD Biosciences, Heidelberg, Germany) was used. For the detection of IgG, IgA, PGE2, CCL18, and CCL17 an ELISA was performed. The cytometric bead arrays and the ELISAs were performed according to the manufacturers protocol.

The subject of data set [8] is B cells. The experiment in a line: B cell activation with IL-21, sCD40L, CpG, anti-IgM (proliferation, plasmablasts, IgG/IgA, viability). It counts as cell-based, human. Particulars: for B cell proliferation / formation of plasmablasts / release of IgA / release of IgG: IL-21, sCD40L, CpG, anti-IgM, 5 days, A366 and MS31 concentration-dependent. The protocol: B cells were activated as described previously. Briefly, 1.25 × 10^5 B cells (stained with 0.25 µM CTV) per well were seeded in a 48 well plate and pretreated with A366, MS31, rapamycin, or vehicle (DMSO) for 30 min and then stimulated with 2.5 μg/ml CpG, 5 μg/ml unconjugated goat antihuman IgM F(ab′)2 fragments, 1 μg/ml sCD40L, and 50 ng/ml recombinant human IL-21 for 5 days.
as §4, §5

For another data set, the system named is monocytes. The experiment in a line: viability assay (Orangu, formazan-based), monocytes. It counts as cell-based, human. Conditions: 48 h, n = 3, read-out: Monocyte viability IC50. As for the experimental part: as §1
For data set [9], the system named is M1 MdMs. The experiment in a line: viability assay (Orangu, formazan-based), M1 MdM. It counts as cell-based, human. Particulars: 48 h, n = 3. The protocol: as §1
For the next data set, the system named is M2 macrophages. The experiment in a line: polarization of MdMs to M2 macrophages (surface markers, cytokines, viability). It counts as cell-based, human. As for the experimental part:
as §3, §4, §5

In data set [10] the test system is CD4+ T cells. Nature of the data set: viability assay (Orangu, formazan-based), CD4+ T cells. More on the design: species or system human. Particulars: 48 h, n = 3, read-out: T cell viability IC50. As for the experimental part: as §1
In data set [11] the test system is B cells. Nature of the data set: energy metabolism (Seahorse OCR/ECAR), activated B cells. It counts as cell-based, human. Particulars: 5 days. The protocol:
as §2

The mark [12] stands for this setting: M1 polarization, 48 h, flow cytometry.
The mark [13] stands for this setting: M1 polarization, 48 h, supernatant.
Where [14] appears, read: M2 polarization, 24 h, supernatant.

Where two headings read alike, the source gives them in different places.

What is called IC50 is the concentration at which inhibition is half-maximal. As for `COc1c(CN)cc(CN)cc1OCCCN1Cc2ccccc2C1` [MS31], the IC50 with B cells [1] came out at 11 µM. This compound also came in with an IC50 in the data set on M2 MdMs [2] of 89 µM. Moreover, in the data set with CD4+ T cells [3] (0–10 µM, 5 days), the “cytotoxic effects on CD4+ T cells” value is “no cytotoxic effects”. In addition, in the data set with CD4+ T cells [3] (activated CD4+ T cells, 5 days), the CD134 expression entry is “increased”. Moreover, the “activation of CD4+ T cells (CD25 positive, CD25 and CD69 positive cells, CD69)” value with CD4+ T cells [3] (anti-CD3/anti-CD28, 5 days) is given as “did not influence”. Also, the “proliferation of CD4+ T cells” value with CD4+ T cells [3] (anti-CD3/anti-CD28, 5 days, CTV) is reported as “did not affect”. Moreover, the IC50 in data set [4] (range for CD4+ T cells and B cells, read-out: viability IC50 values) lay within 11 to 22 µM. Also, in data set [4] (range over all immune cell types tested, read-out: IC50, immune cell type-dependent cytotoxicity), the half-inhibitory concentration (IC50) fell in the range of 11 to 3120 µM. Further, in [5], the IC50 is 0.077 µM. Also, the “OCR in M2 MdMs” value in the data set with M2 MdMs [6] is recorded as “only slightly increased”. In addition, in the data set on M1 MdMs [7], the “energy metabolism (OCR, ECAR) of M1 MdMs” value was “did not affect”. In addition, the “overall effect on M1 polarization” value in the data set with M1 macrophages is listed as “may shift M1 to an M2 phenotype”. Moreover, in the data set on M1 macrophages (0–50 µM, 48 h, zombie staining), the “cytotoxicity during polarization of M1 macrophages” value was “did not induce cytotoxicity”. In the data set on M1 macrophages (setting [12]), the “CD163 surface marker expression” value is “slightly increased” and the “TREM2 surface marker expression” value is recorded as “slightly increased”. Further, in the data set on M1 macrophages (setting [13]), the “release of IFNγ” value was “upregulated the release of IFNγ more pronouncedly” and the “release of IL8” value is “significantly inhibited”. Further, the “B cell activation (proliferation, plasmablast formation, release of immunoglobulins A and G)” value in the data set with B cells [8] (2.5 µM) is listed as “clearly prevented”. Besides, in the data set with B cells [8], the B cell proliferation entry is listed as “markedly reduced”, the formation of plasmablasts entry is reported as “markedly reduced”, the “release of IgA” value is on record as “markedly reduced” and the “release of IgG” value was “markedly reduced”. The IC50 in the data set with monocytes is 42 µM. This compound also gave an IC50 in the data set with M1 MdMs [9] of 3120 µM. In addition, the “overall effect on M2 polarization” value with M2 macrophages is listed as “may weaken M2 polarization”. Also, the “cytotoxicity during polarization of macrophages to M2 MdMs” value in the data set on M2 macrophages (0–50 µM, zombie staining) is on record as “did not induce cytotoxicity”. Moreover, in the data set on M2 macrophages (M2 polarization, 24 h, flow cytometry), the “CD86 surface marker expression” value is given as “reduced”. In the data set on M2 macrophages (setting [14]), the CCL2 release result is given as “reduced”, the CCL18 release entry is listed as “increased”, the IL10 release entry is “reduced” and the PGE2 release entry was “reduced”. For the same compound, the IC50 with CD4+ T cells [10] was found to be 22 µM.
For the compound `CO[C@H]1C[C@@H]2CC[C@@H](C)[C@@](O)(O2)C(=O)C(=O)N2CCCC[C@H]2C(=O)O[C@H]([C@H](C)C[C@@H]2CC[C@@H](O)[C@H](OC)C2)CC(=O)[C@H](C)/C=C(\C)[C@@H](O)[C@@H](OC)C(=O)[C@H](C)C[C@H](C)/C=C/C=C/C=C/1C` [rapamycin], in the data set on B cells [8], the B cell proliferation entry is “inhibit”, the formation of plasmablasts result is reported as “inhibit”, the “release of IgA” value is on record as “inhibit” and the “release of IgG” value was “inhibit”. In addition, the “energy metabolism of activated B cells (OCR, ECAR)” value in the data set with B cells [11] is “induced both glycolysis and oxidative phosphorylation”.

The values above are taken from article PMC12164290, “Immune-modulatory effects of Spindlin-1 inhibitors” (Clinical and Experimental Immunology, 2025).
